Source: patent publication US8633204B2 (Pfizer Inc., priority 2006, dated 2014)
pIC50: −log10 of the molar value.

Experiments:
[1] = molecular target: PI3-Kα (Mus musculus (Mouse), UniProt P42337); assay: PI3-Kα Biochemical Assay (fluorescence polarization kinase assay)
Experimental: Compounds of the present invention were evaluated for potency against PI3-Kα using an in vitro kinase assay. PI3-Kα activity is measured in vitro by determining the level of phosphorylation of the substrate PI(4,5)P2. The formation of product PI(3,4,5)P3 is monitored by binding to the Grip1 PH domain in a ligand displacement fluorescence polarization (FP) assay, in which the TAMRA-labeled PI(3,4,5)P3 complexed with Grip1 PH domain is displaced by PI(3,4,5)P3 formed in the PI3-Kα reaction resulting in a decrease in FP signal. Mouse PI3-Kα P110 and P85 subunits were co-expressed in insect cells and co-purified to homogeneity. PI(4,5)P2 were obtained from Cayman. TAMRA-labeled PI(3,4,5)P3 were from Echelon, Grip1 PH domain from Dundee and other reagents were from Sigma.
All assays were performed in a Corning solid black 96-well half area plate using LJL Analyst (Molecular Devices) at room temperature. The assay buffer contained 50 mM HEPES, pH 7.4, 150 mM NaCl, 5 mM DTT, and 0.05% CHAPS. Dry powder PI(4,5)P2 was dissolved in 50 mM TRIS, pH 8 to make 1 mM stock solution. The PI(4,5)P2 stock solution was then diluted in the assay buffer to 60 μM, and sonicated for 30 sec before use. To the assay plate, the following reagents were added in sequence: 10 μL of 60 μM PI(4,5)P2, 5 μL of 4 nM PI3-Kα, 2 μL of compound in 25% DMSO, 3 μL of mixture containing 200 μM ATP and 33 mM MgCl2. The final volume for the reaction was 20 μL. The reaction mixture was incubated at room temperature for 35 min. The reaction was then stopped by 20 μL of 20 mM EDTA. […] The FP signal was allowed to develop for 40 min before reading on a LJL analyst at excitation 535 nm and emission 580 nm.
The percentage of inhibition was calculated based on the following equation % inhibition=[1−(FPcompound−FPmax)/(FPmin−FPmax)]×100, where FPcompound is the FP reading at a given compound concentration, FPmin is the FP signal of the PI3-Kα reaction in the absence of a compound, and FPmax is the background FP signal in the absence of PI3-Kα and a compound. The IC50 was determined by fitting the FP signal vs. compound concentration to a sigmoidal dose response equation using GraphPad Prism curve fitting program.

[2] = system: PI3-K in BT20 cells (phosphorylation of AKT at serine 473); assay: PI3-Kα Cellular Assay (AKT Ser473 phosphorylation ELISA in BT20 cells); assay type: cell-based, human; details: Homo sapiens, BT-20, pAKT Ser473 ELISA, 1 hour incubation
Experimental: Compounds of the present invention were evaluated for potency against PI3-K using a cellular assay as follows.
Healthy growing human breast cancer cells BT20 (PI3K mutated) are used for the assay. BT20 cells are grown in 10% FBS+GLN (1:100)+PS (1:100)+1 mM Sodium Pyruvate+0.1 mM Sodium Bicarbonate+Non-Essential Amino Acids Solution (1:100) MEM medium (MEM+all). […] The cells are re-suspended in 10% FBS MEM all and are centrifuged down at 1400 rpm for 5 minutes. The cells are re-suspended in 0.5% FBS MEM all and are counted on a cell counter. The cells are seeded at 25,000 cells/well in volume of 100 μL/well in 0.5% FBS MEM all in a 96 well flat-bottom plate. The negative control wells receive only 100 μL of 0.5% FBS MEM all medium without cells. The plate is incubated overnight in a cell culture incubator with 5% CO2 at 37° C.
On day 2, testing compounds are prepared in 0.5% FBS MEM all medium and serially diluted at 1:3 for 11 test concentrations. Each concentration of the compounds is tested in duplicate. The compound solutions are added at 25 μL/well to the corresponded wells in cell plate, and 25 μL/well of the vehicle (0.5% DMSO in 0.5% FBS MEM all) is added to the negative control wells (no cells) and the positive control wells (cells without compounds). The plate is incubated for 1 hour in a cell culture incubator with 5% CO2 at 37° C. After 1 hour of incubation, the medium is removed, 100 μL/well of cell lysis buffer is added into the cell plate, and shake for 15 minutes at room temperature. […] After 1 hour, empty the contents of the wells, wash the plate 4 times with the wash buffer, and add 100 μL of TMB substrate solution (catalog #T0440, Sigma) into each well, and incubate with gentle shaking at room temperature for […]. After 15 minutes of color development, add 100 μL of stop solution (1N hydrochloric acid) to each well, and read the plate at 450 nm on ELISA plate reader.

Sequence of PI3-Kα (P42337 whole entry, the tested form may be a part): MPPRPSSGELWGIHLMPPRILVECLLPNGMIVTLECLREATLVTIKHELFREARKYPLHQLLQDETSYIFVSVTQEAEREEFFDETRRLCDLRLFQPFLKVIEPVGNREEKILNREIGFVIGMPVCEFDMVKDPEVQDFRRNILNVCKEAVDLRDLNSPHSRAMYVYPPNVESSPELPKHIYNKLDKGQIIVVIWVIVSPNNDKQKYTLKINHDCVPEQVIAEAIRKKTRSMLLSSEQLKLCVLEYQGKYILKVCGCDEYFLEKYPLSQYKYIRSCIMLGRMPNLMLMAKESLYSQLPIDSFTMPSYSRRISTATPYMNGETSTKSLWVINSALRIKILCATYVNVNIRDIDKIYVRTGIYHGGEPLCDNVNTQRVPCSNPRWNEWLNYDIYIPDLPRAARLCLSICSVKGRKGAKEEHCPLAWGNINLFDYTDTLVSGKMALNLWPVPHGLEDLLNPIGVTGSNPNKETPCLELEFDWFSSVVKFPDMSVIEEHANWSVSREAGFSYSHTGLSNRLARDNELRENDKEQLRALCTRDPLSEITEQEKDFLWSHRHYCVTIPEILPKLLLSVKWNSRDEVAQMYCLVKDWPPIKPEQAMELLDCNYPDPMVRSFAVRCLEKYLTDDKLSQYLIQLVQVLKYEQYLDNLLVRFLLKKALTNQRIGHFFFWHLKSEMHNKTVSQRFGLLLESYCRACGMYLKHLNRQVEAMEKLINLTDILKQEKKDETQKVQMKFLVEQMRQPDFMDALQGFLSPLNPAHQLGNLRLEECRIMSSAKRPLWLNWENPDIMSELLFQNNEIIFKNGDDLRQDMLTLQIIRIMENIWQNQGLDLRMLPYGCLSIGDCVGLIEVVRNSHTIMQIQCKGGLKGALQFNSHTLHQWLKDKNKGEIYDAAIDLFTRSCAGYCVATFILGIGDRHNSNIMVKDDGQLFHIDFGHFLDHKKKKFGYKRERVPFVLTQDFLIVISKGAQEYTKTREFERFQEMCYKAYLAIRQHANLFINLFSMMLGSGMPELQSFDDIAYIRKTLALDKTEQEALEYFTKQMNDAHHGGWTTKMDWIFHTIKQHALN
Sequence of PI3-Kα (P26450 whole entry partner, the tested form may be a part): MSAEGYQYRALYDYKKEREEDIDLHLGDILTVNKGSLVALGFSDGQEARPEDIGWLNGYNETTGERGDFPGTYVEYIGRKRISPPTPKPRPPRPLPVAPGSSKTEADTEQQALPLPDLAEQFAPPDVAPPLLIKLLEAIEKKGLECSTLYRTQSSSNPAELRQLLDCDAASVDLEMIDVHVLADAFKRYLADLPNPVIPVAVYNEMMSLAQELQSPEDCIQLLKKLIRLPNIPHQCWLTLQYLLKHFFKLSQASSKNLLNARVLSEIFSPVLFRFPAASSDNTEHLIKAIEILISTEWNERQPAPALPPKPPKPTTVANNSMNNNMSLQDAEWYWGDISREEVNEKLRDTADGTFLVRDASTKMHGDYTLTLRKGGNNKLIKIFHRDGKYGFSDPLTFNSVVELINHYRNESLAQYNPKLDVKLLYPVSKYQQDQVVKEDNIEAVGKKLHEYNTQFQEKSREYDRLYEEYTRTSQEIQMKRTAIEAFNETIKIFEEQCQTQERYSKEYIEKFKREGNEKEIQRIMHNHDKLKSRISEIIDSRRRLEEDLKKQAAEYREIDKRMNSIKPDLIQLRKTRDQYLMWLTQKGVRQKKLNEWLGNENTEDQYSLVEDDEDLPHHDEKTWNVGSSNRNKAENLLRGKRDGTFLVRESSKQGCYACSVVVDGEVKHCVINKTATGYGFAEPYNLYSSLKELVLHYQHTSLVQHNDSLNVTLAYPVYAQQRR

Structure (SMILES)	pIC50 [1]	pIC50 [2]	inhibition at 10 µM [1] [%]
CCNc1nc(C)c2cc(CCC(=O)N(CC)CC)c(=O)n(C3CCCC3)c2n1 [Compound 117, 3-[8-cyclopentyl-2-(ethylamino)-methyl-7-oxo-7,8-dihydropyrido[2,3-d]pyrimidin-6-yl]-N,N-diethylpropanamide]		5.00	32
COc1ccc(-c2cc3c(C)nc(N)nc3n(CC3(F)CCOCC3)c2=O)cn1 [Compound 243, 2-Amino-8-(4-fluoro-tetrahydro-pyran-4-ylmethyl)-6-(6-methoxy-pyridin-3-yl)-4-methyl-8H-pyrido[2,3-d]pyrimidin 7-one]	7.74	6.50	
Cc1nc(N)nc2c1cc(-c1cnn(C)c1)c(=O)n2[C@H]1CC[C@H](O)CC1 [Compound 154, 2-amino-8-(trans-4-hydroxycyclohexyl)-4-methyl-6-(1-melhyl-1H-pyrazol-4-yl)pyrido[2,3-d]pyrimidin-7(8H)-one]	7.74	6.32	
COc1ncc(-c2cc3c(C)nc(N)nc3n([C@H]3CC[C@H](OCCO)CC3)c2=O)cn1 [Compound 287, 2-amino-8-[trans-4-(2-hydroxyethoxy)cyclohexyl]-6-(2-methoxypyrimidin-5-yl)-4-methylpyrido[2,3-d]pyrimidin-7(8H)-one]	8.66	7.41	
CNc1nc(C)c2cc(-c3ccc(OC)nc3)c(=O)n(C3CCC3)c2n1 [Compound 109, 8-Cyclobutyl-6-(6-methoxypyridin-3-yl)-4-methyl-2-(methylamino)pyrido[2,3-d]pyrimidin-7(8H)-one]	8.20	7.23	99
COc1ccc(Cn2c(=O)c(-c3ccccc3)cc3c(C)nc(N)nc32)cc1 [Compound 149, 8-(4-Methoxybenzyl)-2-amino-4-methyl-6-phenylpyrido[2,3-d]pyrimidin-7(8H)-one]	6.51	< 5.00	
CCNc1nc(C)c2cc(-c3cnc4[nH]ccc4c3)c(=O)n(C3CCCC3)c2n1 [Compound 135, 8-cyclopentyl-2-(ethylamino)-4-methyl-6-(1H-pyrrolo[2,3-b]pyridin-5-yl)pyrido[2,3-d]pyrimidin-7(8H)-one]	8.75	7.34	
C#Cc1cc2c(C)nc(N)nc2n(C2CCC2)c1=O [Compound 270, 2-Amino-8-cyclobutyl-6-ethynyl-4-methylpyrido[2,3-d]pyrimidin-7(8H)-one]	6.96	6.18	
COc1ncc(-c2cc3c(C)nc(N)nc3n([C@H]3C[C@H](OCCO)C3)c2=O)cn1 [Compound 316, 2-amino-8-[trans-3-(2-hydroxyethoxy)cyclobutyl]-6-(2-methoxypyrimidin-5-yl)-4-methylpyrido[2,3-d]pyrimidin-7(8H)-one]	8.18	7.03	
CCNc1nc(C)c2cc(-c3cnc(OC)c(F)c3)c(=O)n([C@H]3CC[C@H](O)CC3)c2n1 [Compound 276, 2-(ethylamino)-6-(5-fluoro-6-methoxypyridin-3-yl)-8-(trans-4-hydroxycyclohexyl)-4-methylpyrido[2,3-d]pyrimidin-7(8H)-one]	9.10	8.29	

More lines, in order of rising pIC50 [2], values ahead:

pIC50 [1]	pIC50 [2]	inhibition at 10 µM [1] [%]	Structure (SMILES)
6.52	5.60		Cc1nc(N)nc2c1cc(-c1cnc(O)nc1)c(=O)n2C(C)C [Compound 268, 2-amino-6-(2-hydroxypyrimidin-5-yl)-8-isopropyl-4-methylpyrido[2,3-d]pyrimidin-7(8H)-one]
6.40	5.63		CNc1nc(C)c2cc(-c3cnc(N)c(OC[C@H](C)N)n3)c(=O)n(C3CCCC3)c2n1 [Compound 103, 6-(5-amino-6-{[(2S)-2-aminopropyl]oxy}pyrazin-2-yl)-8-cyclopentyl-4-methyl-2-(methylamino)pyrido[2,3-d]pyrimidin-7(8H)-one]
6.64	5.78		Cc1nc(N)nc2c1cc(Br)c(=O)n2C1CCOC1 (centres unmarked) [Compound 202, 2-amino-6-bromo-4-methyl-8-(tetrahydrofuran-3-yl)pyrido[2,3-d]pyrimidin-7(8H)-one]
7.54	6.50		COc1ccc(-c2cc3c(C)nc(N)nc3n(C3CN(C(=O)OC(C)(C)C)C3)c2=O)cn1 [Compound 227]
7.77	6.86		Cc1nc(N)nc2c1cc(-c1cnc3[nH]ccc3c1)c(=O)n2C1CC1 [Compound 213, 2-amino-8-cyclopropyl-4-methyl-6-(1H-pyrrolo[2,3-b]pyridin-5-yl)pyrido[2,3-d]pyrimidin-7(8H)-one]
7.26	7.02		Cc1nc(N)nc2c1cc(Br)c(=O)n2[C@H]1CC[C@H](OCCO)CC1 [Compound 291, 2-amino-6-bromo-8-[trans-4-(2-hydroxyethoxy)cyclohexyl]-4-methylpyrido[2,3-d]pyrimidin-7(8H)-one]
7.82	7.05		COc1ccc(-c2cc3c(C)nc(N)nc3n(CC3CCOCC3)c2=O)cn1 [Compound 242, 2-Amino-6-(6-methoxy-pyridin-3-yl)-4-methyl-8-(tetrahydro-pyran-4-ylmethyl)-8H-pyrido[2,3-d]pyrimidin-7-one]
7.96	7.19		COc1ccc(-c2cc3c(C)nc(N)nc3n(C(C)C)c2=O)cn1 [Compound 209, 2-amino-8-isopropyl-6-(6-methoxypyridin-3-yl)-4-methylpyrido[2,3-d]pyrimidin-7(8H)-one]
7.06	7.58		Cc1nc(N)nc2c1cc(-c1ccc(N3CCCC3)nc1)c(=O)n2C1CCCC1 [Compound 258, 2-amino-8-cyclopentyl-4-methyl-6-(6-pyrrolidin-1-ylpyridin-3-yl)pyrido[23-d]pyrimidin-7(8H)-one]
8.63	7.79		CNc1nc(C)c2cc(C(=O)Nc3cc[nH]n3)c(=O)n(C3CCCC3)c2n1 [Compound 250, 8-Cyclopentyl-4-methyl-2-methylamino-7-oxo-7,8-dihydro-pyrido[2,3-d]pyrimidine-6-carboxylic acid (1H-pyrazol-3-yl)-amide]
8.32	7.83		CNc1nc(C)c2cc(-c3cccc(CO)c3)c(=O)n(C3CCCC3)c2n1 [Compound 148, 8-Cyclopentyl-6-(3-(hydroxymethyl)phenyl)-4-methyl-2-(methylamino)pyrido[2,3-d]pyrimidin-7(8H)-one]
7.72	8.31		Cc1nc(N)nc2c1cc(-c1ccc(N3CCCC3)nc1)c(=O)n2[C@H]1CC[C@H](O)CC1 [Compound 253, 2-amino-8-(trans-4-hydroxycyclohexyl)-4-methyl-6-(6-pyrrolidin-1-ylpyridin-3-yl)pyrido[23-d]pyrimidin-7(8H)-one]
9.32	8.56		Cc1nc(N)nc2c1cc(-c1cnc3[nH]ccc3c1)c(=O)n2C1CCCC1 [Compound 127, 2-amino-8-cyclopentyl-4-methyl-6-(1H-pyrrolo[2,3-b]pyridin-5-yl)pyrido[2,3-d]pyrimidin-7(8H)-one]
